From US9555039B2, “Piperidine derivatives and compositions for the inhibition of nicotinamide phosphoribosyltransferase (NAMPT)” (Forma TM, LLC., priority 2011, dated 2017)
Like-named read-outs stand apart in the source and are kept apart here.

Experiments:
[1] = target: T1, Recombinant His-tagged NAMPT (Homo sapiens, UniProt P43490); test: Biochemical inhibition assay: NAMPT enzymatic reaction, NMN quantified by mass spectrometry; conditions: 33 nM NAMPT, 1 μM NAM, 100 μM PRPP, 30 minutes at room temperature, read-out: Biochem IC50
T1 construct: His; host or cells: E. coli
Procedure, shortened: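 Reaction 30 min at room temperature with 1 μM NAM, 100 μM PRPP, 2.5 mM ATP (final), quenched with formic acid. NMN quantified by RapidFire electrospray MS, normalized to L-cystathionine; IC50 from percent inhibition versus DMSO.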

[2] = test system: A2780 cells; test: In-vitro cell proliferation assay (SRB, 72 hours); type: cell-based; conditions: Homo sapiens, sulforhodamine B (SRB) assay
Procedure, shortened: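 Background from media-only plate subtracted; inhibition relative to DMSO-treated cells, value derived by interpolation between two concentrations.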

T1 sequence (P43490 whole entry): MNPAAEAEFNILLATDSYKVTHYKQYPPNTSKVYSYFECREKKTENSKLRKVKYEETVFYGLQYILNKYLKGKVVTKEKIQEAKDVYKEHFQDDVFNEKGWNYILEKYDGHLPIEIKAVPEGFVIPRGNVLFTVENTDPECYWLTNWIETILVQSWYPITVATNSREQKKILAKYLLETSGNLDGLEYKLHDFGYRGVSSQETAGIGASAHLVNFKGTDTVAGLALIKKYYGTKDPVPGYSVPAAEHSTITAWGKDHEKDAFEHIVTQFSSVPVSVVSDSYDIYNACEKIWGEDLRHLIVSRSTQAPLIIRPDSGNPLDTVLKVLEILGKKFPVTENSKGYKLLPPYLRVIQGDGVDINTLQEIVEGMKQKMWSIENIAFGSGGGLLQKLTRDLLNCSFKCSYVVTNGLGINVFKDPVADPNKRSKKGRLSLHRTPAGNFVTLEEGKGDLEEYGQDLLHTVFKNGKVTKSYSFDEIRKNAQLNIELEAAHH

SMILES | IC50 ([1]; 2.5 mM ATP) [nM] | IC50 [2] [nM] | IC50 ([1]; […] ATP) [nM]
O=C(NCCCCC1CCN(C(=O)c2ccc(Cl)cc2)CC1)c1cc2ccncc2s1 [N-(4-{1-[(4-chlorophenyl)carbonyl]piperidin-4-yl}butyl)thieno[2,3-c]pyridine-2-carboxamide] | 22.8 | 1000 to 10000 | –
O=C(NCCCCC1CCN(S(=O)(=O)c2ccc(F)cc2)CC1)c1cc2cnccc2[nH]1 [N-(4-{1-[(4-fluorobenzene)sulfonyl]piperidin-4-yl}butyl)-1H-pyrrolo[3,2-c]pyridine-2-carboxamide] | 48.9 | 17.6 | –
O=C(NCCCCC1CCN(C(=O)c2ccc(F)cc2)CC1)c1ccc2nccn2c1 [N-(4-{1-[(4-fluorophenyl)carbonyl]piperidin-4-yl}butyl)imidazo[1,2-a]pyridine-6-carboxamide] | 12 | 26.2 | –
O=C(NCCCCC1CCN(C(=O)c2ccc(F)cc2)CC1)c1cc2ccncc2s1 [N-(4-{1-[(4-fluorophenyl)carbonyl]piperidin-4-yl}butyl)thieno[2,3-c]pyridine-2-carboxamide] | 51.8 | 100 to 1000 | –
COc1ccc(C(=O)N2CCC(CCCCNC(=O)c3cc4cnccc4[nH]3)CC2)cc1 [N-(4-{1-[(4-methoxyphenyl)carbonyl]piperidin-4-yl}butyl)-1H-pyrrolo[3,2-c]pyridine-2-carboxamide] | 79.7 | 16.3 | –
COc1ccc(C(=O)N2CCC(CCCCNC(=O)c3ccc4nccn4c3)CC2)cc1 [N-(4-{1-[(4-methoxyphenyl)carbonyl]piperidin-4-yl}butyl)imidazo[1,2-a]pyridine-6-carboxamide] | 23.2 | 57.6 | –
COc1ccc(C(=O)N2CCC(CCCCNC(=O)c3cc4ccncc4s3)CC2)cc1 [N-(4-{1-[(4-methoxyphenyl)carbonyl]piperidin-4-yl}butyl)thieno[2,3-c]pyridine-2-carboxamide] | 52.2 | 80.3 | –
Cc1ncsc1C(=O)N1CCC(CCCCNC(=O)c2cc3cnccc3[nH]2)CC1 [N-(4-{1-[(4-methyl-1,3-thiazol-5-yl)carbonyl]piperidin-4-yl}butyl)-1H-pyrrolo[3,2-c]pyridine-2-carboxamide] | – | 1 | 5.4
Cc1ncsc1C(=O)N1CCC(CCCCNC(=O)c2ccc3nccn3c2)CC1 [N-(4-{1-[(4-methyl-1,3-thiazol-5-yl)carbonyl]piperidin-4-yl}butyl)imidazo[1,2-a]pyridine-6-carboxamide] | 2.9 | 0.8 | –
Cc1ncsc1C(=O)N1CCC(CCCCNC(=O)c2cc3ccncc3s2)CC1 [N-(4-{1-[(4-methyl-1,3-thiazol-5-yl)carbonyl]piperidin-4-yl}butyl)thieno[2,3-c]pyridine-2-carboxamide] | 5.3 | 0.8 | –
COc1ccc(Cl)cc1C(=O)N1CCC(CCCCNC(=O)c2ccc3nccn3c2)CC1 [N-(4-{1-[(5-chloro-2-methoxyphenyl)carbonyl]piperidin-4-yl}butyl)imidazo[1,2-a]pyridine-6-carboxamide] | 10.5 | 3.1 | –
COc1ccc(Cl)cc1C(=O)N1CCC(CCCCNC(=O)c2cc3ccncc3s2)CC1 [N-(4-{1-[(5-chloro-2-methoxyphenyl)carbonyl]piperidin-4-yl}butyl)thieno[2,3-c]pyridine-2-carboxamide] | 14.1 | 3.3 | –
COc1ncc(Cl)cc1C(=O)N1CCC(CCCCNC(=O)c2cc3cnccc3[nH]2)CC1 [N-(4-{1-[(5-chloro-2-methoxypyridin-3-yl)carbonyl]piperidin-4-yl}butyl)-1H-pyrrolo[3,2-c]pyridine-2-carboxamide] | 30.3 | 3.3 | –
COc1ncc(Cl)cc1C(=O)N1CCC(CCCCNC(=O)c2ccc3nccn3c2)CC1 [N-(4-{1-[(5-chloro-2-methoxypyridin-3-yl)carbonyl]piperidin-4-yl}butyl)imidazo[1,2-a]pyridine-6-carboxamide] | 12.3 | 3.3 | –
COc1ncc(Cl)cc1C(=O)N1CCC(CCCCNC(=O)c2cc3ccncc3s2)CC1 [N-(4-{1-[(5-chloro-2-methoxypyridin-3-yl)carbonyl]piperidin-4-yl}butyl)thieno[2,3-c]pyridine-2-carboxamide] | 17 | 7.1 | –
O=C(NCCCCC1CCN(C(=O)c2cc3cc(F)ccc3[nH]2)CC1)c1cc2cnccc2[nH]1 [N-(4-{1-[(5-fluoro-1H-indol-2-yl)carbonyl]piperidin-4-yl}butyl)-1H-pyrrolo[3,2-c]pyridine-2-carboxamide] | 97.1 | 100 to 1000 | –
O=C(NCCCCC1CCN(C(=O)c2cc3cc(F)ccc3[nH]2)CC1)c1cc2ccncc2s1 [N-(4-{1-[(5-fluoro-1H-indol-2-yl)carbonyl]piperidin-4-yl}butyl)thieno[2,3-c]pyridine-2-carboxamide] | 30.4 | 1000 to 10000 | –
Cc1ccc(F)cc1C(=O)N1CCC(CCCCNC(=O)c2cc3cnccc3[nH]2)CC1 [N-(4-{1-[(5-fluoro-2-methylphenyl)carbonyl]piperidin-4-yl}butyl)-1H-pyrrolo[3,2-c]pyridine-2-carboxamide] | 14.2 | 2.3 | –

SMILES | IC50 ([1]; 2.5 mM ATP) [nM] | IC50 [2] [nM] | IC50 ([1]; […] ATP) [nM]
Cc1ccc(F)cc1C(=O)N1CCC(CCCCNC(=O)c2ccc3nccn3c2)CC1 [N-(4-{1-[(5-fluoro-2-methylphenyl)carbonyl]piperidin-4-yl}butyl)imidazo[1,2-a]pyridine-6-carboxamide] | 10.9 | 3.9 | –
Cc1ccc(F)cc1C(=O)N1CCC(CCCCNC(=O)c2cc3ccncc3s2)CC1 [N-(4-{1-[(5-fluoro-2-methylphenyl)carbonyl]piperidin-4-yl}butyl)thieno[2,3-c]pyridine-2-carboxamide] | 4.5 | 1.8 | –
O=C(NCCCCC1CCN(C(=O)c2ccc(F)cn2)CC1)c1cc2cnccc2[nH]1 [N-(4-{1-[(5-fluoropyridin-2-yl)carbonyl]piperidin-4-yl}butyl)-1H-pyrrolo[3,2-c]pyridine-2-carboxamide] | 57.2 | 14 | –
O=C(NCCCCC1CCN(C(=O)c2ccc(F)cn2)CC1)c1ccc2nccn2c1 [N-(4-{1-[(5-fluoropyridin-2-yl)carbonyl]piperidin-4-yl}butyl)imidazo[1,2-a]pyridine-6-carboxamide] | 74 | 67.9 | –
O=C(NCCCCC1CCN(C(=O)c2ccc(F)cn2)CC1)c1cc2ccncc2s1 [N-(4-{1-[(5-fluoropyridin-2-yl)carbonyl]piperidin-4-yl}butyl)thieno[2,3-c]pyridine-2-carboxamide] | 26.5 | 100 to 1000 | –
Cc1cnc(C(=O)N2CCC(CCCCNC(=O)c3cc4cnccc4[nH]3)CC2)cn1 [N-(4-{1-[(5-methylpyrazin-2-yl)carbonyl]piperidin-4-yl}butyl)-1H-pyrrolo[3,2-c]pyridine-2-carboxamide] | 115 | 23.8 | –
Cc1cnc(C(=O)N2CCC(CCCCNC(=O)c3ccc4nccn4c3)CC2)cn1 [N-(4-{1-[(5-methylpyrazin-2-yl)carbonyl]piperidin-4-yl}butyl)imidazo[1,2-a]pyridine-6-carboxamide] | 10.9 | 66.7 | –
Cc1cnc(C(=O)N2CCC(CCCCNC(=O)c3cc4ccncc4s3)CC2)cn1 [N-(4-{1-[(5-methylpyrazin-2-yl)carbonyl]piperidin-4-yl}butyl)thieno[2,3-c]pyridine-2-carboxamide] | 68.5 | 100 to 1000 | –
Cc1ccc(C(=O)N2CCC(CCCCNC(=O)c3cc4cnccc4[nH]3)CC2)cn1 [N-(4-{1-[(6-methylpyridin-3-yl)carbonyl]piperidin-4-yl}butyl)-1H-pyrrolo[3,2-c]pyridine-2-carboxamide] | 65.1 | 21.3 | –
Cc1ccc(C(=O)N2CCC(CCCCNC(=O)c3ccc4nccn4c3)CC2)cn1 [N-(4-{1-[(6-methylpyridin-3-yl)carbonyl]piperidin-4-yl}butyl)imidazo[1,2-a]pyridine-6-carboxamide] | 23.8 | 73.6 | –
Cc1ccc(C(=O)N2CCC(CCCCNC(=O)c3cc4ccncc4s3)CC2)cn1 [N-(4-{1-[(6-methylpyridin-3-yl)carbonyl]piperidin-4-yl}butyl)thieno[2,3-c]pyridine-2-carboxamide] | 69.7 | 100 to 1000 | –
Cc1nc(C)c(C(=O)N2CCC(CCCCNC(=O)c3ccc4nccn4c3)CC2)s1 [N-(4-{1-[(dimethyl-1,3-thiazol-5-yl)carbonyl]piperidin-4-yl}butyl)imidazo[1,2-a]pyridine-6-carboxamide] | 24.1 | 6.6 | –
O=C(NCCCCC1CCN(C(=O)c2ccoc2)CC1)c1cc2cnccc2[nH]1 [N-(4-{1-[(furan-3-yl)carbonyl]piperidin-4-yl}butyl)-1H-pyrrolo[3,2-c]pyridine-2-carboxamide] | 9.1 | 10.1 | –
O=C(NCCCCC1CCN(C(=O)c2ccoc2)CC1)c1ccc2nccn2c1 [N-(4-{1-[(furan-3-yl)carbonyl]piperidin-4-yl}butyl)imidazo[1,2-a]pyridine-6-carboxamide] | 6.2 | 25.6 | –
O=C(NCCCCC1CCN(C(=O)c2ccoc2)CC1)c1cc2ccncc2s1 [N-(4-{1-[(furan-3-yl)carbonyl]piperidin-4-yl}butyl)thieno[2,3-c]pyridine-2-carboxamide] | 4 | 6 | –
O=C(NCCCCC1CCN(C(=O)c2ccccn2)CC1)c1cc2cnccc2[nH]1 [N-(4-{1-[(pyridin-2-yl)carbonyl]piperidin-4-yl}butyl)-1H-pyrrolo[3,2-c]pyridine-2-carboxamide] | 30.6 | 6.3 | –
O=C(NCCCCC1CCN(C(=O)c2ccccn2)CC1)c1ccc2nccn2c1 [N-(4-{1-[(pyridin-2-yl)carbonyl]piperidin-4-yl}butyl)imidazo[1,2-a]pyridine-6-carboxamide] | 36.4 | 13.5 | –
